According to paper PMC6934184, “Selective DNA-PKcs inhibition extends the therapeutic index of localized radiotherapy and chemotherapy” (The Journal of Clinical Investigation, 2019):

Target: T1, CDK9/cyclin T1 (Homo sapiens, UniProt P50750)
T1 construct: purchased Thermo Fisher Scientific (Life Technologies) SelectScreen
Assay: SelectScreen Adapta
Format: biochemical
Summary of the method: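 Compound tested in SelectScreen activity assays, Z'LYTE for CSF1R, CDK1/cyclin B and MAP2K6 and Adapta for CAMK1. ATP for CAMK1 was listed as 10, and Km app was used for CSF1R. Results are expressed in percent.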

T1 sequence (P50750 whole entry): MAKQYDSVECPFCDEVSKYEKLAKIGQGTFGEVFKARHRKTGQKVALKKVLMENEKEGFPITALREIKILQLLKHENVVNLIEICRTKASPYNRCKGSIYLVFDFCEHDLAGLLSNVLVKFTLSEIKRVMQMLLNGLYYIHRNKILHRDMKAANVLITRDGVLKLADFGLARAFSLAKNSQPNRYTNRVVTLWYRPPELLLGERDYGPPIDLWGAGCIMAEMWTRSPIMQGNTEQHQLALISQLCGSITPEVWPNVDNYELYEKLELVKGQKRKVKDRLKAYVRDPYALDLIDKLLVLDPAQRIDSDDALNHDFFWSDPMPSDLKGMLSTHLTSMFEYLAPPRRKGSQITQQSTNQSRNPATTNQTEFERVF
T1 sequence (O60563 whole entry partner): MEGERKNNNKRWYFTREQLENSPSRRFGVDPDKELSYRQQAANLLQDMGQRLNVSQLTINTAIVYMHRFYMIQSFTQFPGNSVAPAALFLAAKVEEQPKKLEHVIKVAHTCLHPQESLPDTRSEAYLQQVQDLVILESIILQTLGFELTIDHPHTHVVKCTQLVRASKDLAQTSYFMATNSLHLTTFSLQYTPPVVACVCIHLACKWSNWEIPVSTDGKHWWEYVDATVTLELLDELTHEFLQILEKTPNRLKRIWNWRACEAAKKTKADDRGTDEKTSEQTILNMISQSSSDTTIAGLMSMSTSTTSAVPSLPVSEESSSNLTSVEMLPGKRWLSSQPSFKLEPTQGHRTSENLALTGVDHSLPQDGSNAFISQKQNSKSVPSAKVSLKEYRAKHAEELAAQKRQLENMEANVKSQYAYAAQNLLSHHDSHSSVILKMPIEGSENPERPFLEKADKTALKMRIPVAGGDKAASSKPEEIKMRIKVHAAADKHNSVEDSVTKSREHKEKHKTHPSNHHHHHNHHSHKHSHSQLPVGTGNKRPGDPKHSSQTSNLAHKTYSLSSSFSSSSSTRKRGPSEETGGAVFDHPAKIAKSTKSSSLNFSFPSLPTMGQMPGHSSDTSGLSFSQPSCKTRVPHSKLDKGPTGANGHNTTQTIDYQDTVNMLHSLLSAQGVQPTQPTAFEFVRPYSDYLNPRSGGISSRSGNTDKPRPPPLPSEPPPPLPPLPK

With `CN(C(=O)CN1CCOCC1)c1ccc2sc3c(-c4cccc5c(=O)cc(N6CC7CCC(C6)O7)oc45)cccc3c2c1` [NU5455] as the compound, how does the inhibition at 1 µM read?
The inhibition at 1 µM was -1.4%.
